Experimental data from patent US7892569B2, “Methods of altering an immune response induced by CpG oligodeoxynucleotides” (The United States of America as represented by the …, priority 2005, dated 2011).

Tests used:
pDC [1] = experiment: Binding of FITC conjugated CpG ODN to purified pDC in the presence of scavenger receptor ligands (flow cytometry); type: cell-based, human; details: 50 μg/ml inhibitor, preincubated 20 min at 4° C., mean ± S.D
Procedure: (§1) FIGS. 3A-3D are bar graphs and plots showing the effect of scavenger receptor ligands on the binding and activity of CpG ODN. FIG. 3A is a bar graph of the results obtained when purified pDC were preincubated (20 minutes at 4° C.) with medium or with 50 μg/ml each of inhibitors followed by addition of 1 μM FITC conjugated ODN. Mean fluorescence intensity representing binding of FITC-ODN was assessed using flow cytometry. Results represent the mean±S.D of three independent experiments. FIG. 3B is a bar graph showing D ODN induced IFN-α from peripheral blood mononuclear cells (PBMC). Open bars: medium; dotted bars: chondroitin sulfate; right-striped bars: fucoidan; left-striped bars: dextran sulfate Production of IFN-α from PBMC (in the absence or presence of 50 μg/ml inhibitors) was determined by ELISA from 24 hour culture supernatants. FIG. 3C is a plot showing K ODN induced TNF-α production in pDC (in the absence or presence of 50 μg/ml dextran sulfate). TNF-α production was determined using intracytoplasmic cytokine staining (representative plots of three independent experiments). FIG. 3D is a plot showing the results obtained when purified pDC were incubated with 1 μM each of K or with 3 μM D ODN in the absence or presence of 50 μg/ml dextran sulfate. Upregulation of HLA-DR/CD54 was determined 24 hours later using flow cytometry.
To evaluate whether a scavenger receptor (SR) played a role in D ODN uptake and signaling, the ability of dextran sulfate and fucoidan (classical scavenger receptor ligands) to block the binding of CpG ODN to pDC was evaluated (Table 2 and Supplementary FIG. 3A).

PBMC [2] = experiment: CpG ODN induced cytokine secretion (TNF-α, IFN-α) in the absence or presence of scavenger receptor ligands; type: cell-based, human; details: 50 μg/ml inhibitor
Procedure: as §1, with “FIG. 3A is a bar graph of the results obtained when purified pDC were preincubated (20 minutes at 4° C.) with medium or with 50 μg/ml each of inhibitors followed by addition of 1 μM FITC conjugated ODN.” left out, “FIG. 3B is a bar graph showing D ODN induced IFN-α from peripheral blood mononuclear cells (PBMC).” left out, “FIG. 3C is a plot showing K ODN induced TNF-α production in pDC (in the absence or presence of 50 μg/ml dextran sulfate).” left out

pDC [3] = experiment: Upregulation of HLA-DR/CD54 on purified pDC by CpG ODN in the absence or presence of dextran sulfate; type: cell-based, human; details: 24 hours, 50 μg/ml inhibitor
Procedure: as §1, with “FIG. 3A is a bar graph of the results obtained when purified pDC were preincubated (20 minutes at 4° C.) with medium or with 50 μg/ml each of inhibitors followed by addition of 1 μM FITC conjugated ODN.” left out, “FIG. 3B is a bar graph showing D ODN induced IFN-α from peripheral blood mononuclear cells (PBMC).” left out, “FIG. 3C is a plot showing K ODN induced TNF-α production in pDC (in the absence or presence of 50 μg/ml dextran sulfate).” left out

pDC [4] = experiment: CXCL16 expression on pDC after preincubation of PBMC with GM-6001; type: cell-based, human; details: 50 μM, 30 minutes preincubation of PBMC
Procedure: (§2) FIGS. 7A-7B are a plot and a bar graph showing the metalloproteinase inhibitor GM-6001 enhances CXCL16 expression and subsequent cytokine production induced by D ODN. PBMC were preincubated in the absence (open bars) or presence (filled bars) of GM-6001 (50 μM) for 30 minutes, washed and then stained for CXCL16 expression on pDC (see FIG. 7A) or stimulated with 1 μM of K or 3 μM D ODN for 24 hours (FIG. 7B). Cytokine production (IL-6 for K ODN and IFN-α D ODN) was assessed from culture supernatants using ELISA. Individual results from six different PBMC are shown.
(§3) CXCL16 expressed on the cell surface is cleaved by the metalloproteinase ADAM-10 (Abel et al., J Immunol. 2004 172(10):6362-72, 2004; Gough et al., J Immunol. 172(6):3678-85, 2004). […] Based on the observation that pDC expressing high levels of CXCL16 were more responsive to D ODN stimulation, human PBMC were incubated with GM6001 followed by K or D ODNs.

PBMC [5] = experiment: Cytokine production of PBMC preincubated with GM-6001 and stimulated with K or D ODN (ELISA); type: cell-based, human; details: 50 μM preincubation, 24 hours
Procedure: as §2, §3

[6] = Cytokine induction by D ODN (statement in the description); type: cell-based; details: no test described
[7] = D ODN: 1 μM FITC conjugated ODN

Compound: chondroitin sulfate
- % inhibition of binding to pDC (pDC [1]; [7]): not

Compound: Dextran sulfate
- % inhibition of binding to pDC (pDC [1]; [7]): > 50%
- % inhibition of binding to pDC (pDC [1]; D ODN: 1 μM FITC conjugated ODN, listed as Dextran Sulfate): 65.02 ± 5.8%
- % inhibition of binding to pDC (pDC [1]; K ODN: 1 μM FITC conjugated ODN): not
- % inhibition of binding to pDC (pDC [1]; K ODN: 1 μM FITC conjugated ODN, listed as Dextran Sulfate): 23.2 ± 8.8%
- % inhibition of cytokine secretion (PBMC [2]; D ODN induced IFN-α production from PBMC, ELISA): 90.3 ± 8.4%
- % inhibition of cytokine secretion (PBMC [2]; K ODN induced TNF-α production, intracytoplasmic staining): 5.8 ± 2.3%
- % inhibition in the generation of HLA-DR/CD54 double positive cells (pDC [3]; 1 μM K ODN): 0.8 ± 1.8%
- % inhibition in the generation of HLA-DR/CD54 double positive cells (pDC [3]; 3 μM D ODN): 92.3 ± 5.8%

Compound: CNC(=O)[C@H](Cc1c[nH]c2ccccc12)NC(=O)[C@@H](CC(=O)NO)CC(C)C [GM6001]
- expression of CXCL16 on pDC (pDC [4]): increased
- effect on cells stimulated with K ODN (IL-6 production) (PBMC [5]; 1 μM K ODN): no effect
- increase of D ODN responsiveness of pDCs (IFN-α production) (PBMC [5]; 3 μM D ODN): 2 fold

Compound: DV113: D ODN GGTGCATCGATACAGGGGGG (SEQ ID NO: 6) (DNA, backbone not given here; underlined bases phosphodiester, further chemistry not fully specified)
- induction of IFN-γ and IFN-α [6]: high levels
